15 molecules from US5990173A, “2,3,5-trimethyl-4-hydroxyanilide derivatives, preparation thereof and therapeutical use thereof” (Pierre Fabre Medicament, priority 1995, dated 1999) can be followed below.

One may read the IC50 as the concentration at which inhibition is half-maximal. Lower therefore signals inhibition by little substance.

The subject of one test is plasma cholesterol. The test can be described thus: Hypocholesterolemic activity in rats on a hypercholesterolemic diet. The test is classed as in vivo, rat. The following applies: male rats, 4 days, Altromin C 1061 hypercholesterolemic diet, dose which reduces plasma cholesterol by half relative to controls. Here is the method:
2) Hypocholesterolemic activity
Male rates (160-180 g) are subjected for 4 days to an Altromin C 1061 hypercholesterolemic diet, and concomitantly treated orally with compounds suspended in a 2% solution of Tween 80 in distilled water.
On day 5, the animals, which have not fasted, are anesthethized with ethyl ether and exsanguinated by drawing blood at the abdominal aorta onto EDTA. The blood is immediately centrifuged and the plasma stored at 4° C.
Plasma cholesterol is then assayed by the CHOD-PAP method (Boehringer-Mannheim Ref. 237574). The median effective dose (ED50) corresponds to the dose which reduces the plasma cholesterol concentration by half relative to control animals.

A further test deals with Human LDL. The test can be described thus: Antioxidant activity: oxidation of LDL by CuSO4 (TBARS). The test is classed as biochemical. The following applies: human LDL oxidized with 10 μM CuSO4, 6 hours, TBARS at 532 nm.
For test [1], the system named is hepatic microsomal lipids (rat liver microsomes). Kind of test: Antioxidant activity: chemical peroxidation of hepatic microsomal lipids (TBARS). Format: biochemical. The following applies: Fe3+/ADP/dihydroxyfumaric acid. The source says: a) Chemical peroxidation.
In the presence of Fe^3+ and ADP, dihydroxyfumaric acid undergoes an autoxidation which generates oxygen free radicals. The latter bring about the peroxidation of hepatic microsomal lipids.

The target of test [2] is ACAT (acyl-CoA:cholesterol O-acyl-transferase enzyme). The test can be described thus: Inhibition of ACAT in vitro. The conditions noted are these: technique of H. Chautan et al. Format: biochemical, rat. The source says: The compounds were studied for their inhibitory effect on ACAT and hypocholesterolemic effect in rats, on the one hand, and for their antioxidant effect, on the other hand.

Where [3] appears, read: Rattus norvegicus, po, 96 h, read-out: ED50.

Read-outs that look alike come from different tables or passages of the source.

Take `CCCCCCCN(CCCCCSc1nc(-c2ccccc2)c(-c2ccccc2)[nH]1)C(=O)Nc1ccc(F)cc1F` [DUP 128, reference compound]: the ED50 in the test on plasma cholesterol (setting [3]) was 1.1 mg/kg. For the same molecule, the figures for the IC50 (in the test with Human LDL; in test [1]) were 30000 nM and greater than 10000 nM, respectively.
With `CCCCCCCCCCCCSC(C(=O)Nc1cc(C)c(O)c(C)c1C)c1ccccc1` (stereo not drawn) [Compound 7, 2',3',5'-Trimethyl-4'-hydroxy-α-dodecylthio-α-phenylacetanilide], in the test with plasma cholesterol (setting [3]), the ED50 turned out to be 0.2 mg/kg. Moreover, the values for the concentration for half-maximal inhibition (IC50) (in the test with Human LDL; in test [1]) were 13000 nM and 600 nM, respectively.
Take `CCCCCCCCCCCCSCC(=O)Nc1cc(C)c(O)c(C)c1C` [Compound 2, 2',3',5'-Trimethyl-4'-hydroxy-α-(dodecylthio)acetanilide]: the ED50 in the test with plasma cholesterol (setting [3]) is greater than 10 mg/kg. For the same molecule, the IC50 in test [1] is 5000 nM; in test [2], 300 nM.
The corresponding values for `CCCCCCCCCCCCSC(C)(C)C(=O)Nc1cc(C)c(O)c(C)c1C` [Compound 8, 2',3',5'-Trimethyl-4'-hydroxy-α-(dodecylthio)isobutyranilide] are 10 mg/kg, 3000 nM and 190 nM.
The corresponding values for `CCCCCCCCCCCCSC(CCC)C(=O)Nc1cc(C)c(O)c(C)c1C` (stereo not drawn) [Compound 6, 2',3',5'-Trimethyl-4'-hydroxy-α-(dodecylthio)valeranilide] are 1 mg/kg, 300 nM and 110 nM.
Turning to `CCCCCCCCCCCCSC(C(=O)Nc1cc(C)c(O)c(C)c1C)c1ccc(OC)cc1` (stereo not drawn) [Compound 14, 2',3',5'-Trimethyl-4-hydroxy-α-dodecylthio-α-(p-methoxyphenyl)acetanilide], in the test with plasma cholesterol (setting [3]), the ED50 was determined as 1 mg/kg.
As to `Cc1cc(NC(=O)C(C)(C)Oc2ccc(Cl)cc2)c(C)c(C)c1O` [Compound 11, 2',3',5'-Trimethyl-4'-hydroxy-α-(p-chlorophenoxy)isobutyranilide], the IC50 in test [2] was 1100 nM.
`CCCCCCCCCCCCSC(CCCC)C(=O)Nc1cc(C)c(O)c(C)c1C` (stereo not drawn) [Compound 4, 2',3',5'-Trimethyl-4'-hydroxy-α-(dodecylthio)hexananilide]: in the test on plasma cholesterol (setting [3]), the ED50 came to 0.5 mg/kg. For the same molecule, the IC50 in the test on Human LDL was 10000 nM; in test [1] it was 500 nM; in test [2], 160 nM.
As for `CCCCCCCCCCCCSC(CC)C(=O)Nc1cc(C)c(O)c(C)c1C` (stereo not drawn) [Compound 3, 2',3',5'-Trimethyl-4'-hydroxy-α-(dodecylthio)butyranilide], the ED50 in the test on plasma cholesterol (setting [3]) worked out at 4 mg/kg. Moreover, the IC50 in test [1] is greater than 10000 nM; in test [2], 310 nM.
`CCCCCCCCCCCC[S+]([O-])C(C)(C)C(=O)Nc1cc(C)c(O)c(C)c1C` (stereo not drawn) [Compound 12, 2',3',5'-Trimethyl-4'-hydroxy-α-(dodecylsulfinyl)bobutyranilide] showed an IC50 with Human LDL of 3000 nM.
In the case of Vitamin E [reference compound], the IC50 in the test with Human LDL turned out to be 10000 nM; in test [1], 2300 nM.
On to `CCCCCCCCCCCCSC(C(=O)Nc1cc(C)c(O)c(C)c1C)C(C)C` (stereo not drawn) [Compound 5, 2',3',5'-Trimethyl-4'-hydroxy-α-(dodecylthio)isovaleranilide], for which the ED50 in the test on plasma cholesterol (setting [3]) came to 1 mg/kg. The figures for the IC50 in test [1] and in test [2] were 5000 nM and 630 nM, respectively.
On to `CCCCCCCCCCC(C)(C)C(=O)Nc1c(OC)cc(OC)cc1OC` [CI 976, reference compound], for which, in the test on plasma cholesterol (setting [3]), the ED50 was found to be 8.3 mg/kg. Further, the IC50 in the test with Human LDL was 100000 nM; in test [1] it was greater than 10000 nM.
For the molecule `Cc1cc(NC(=O)C(C)(C)Sc2ccc(Cl)cc2)c(C)c(C)c1O` [Compound 9, 2',3',5'-Trimethyl-4'-hydroxy-α-(p-chlorophenylthio)isobutyranilide], the IC50 in test [2] amounted to 1120 nM.
As to `CCCCCCCCCCCCSC(C(=O)Nc1cc(C)c(O)c(C)c1C)c1ccccc1` (single isomer, unassigned; (+)) [Compound 16, (+)-2',3',5'-Trimethyl-4'-hydroxy-α-dodecylthio-α-phenylacetanilide], in the test on plasma cholesterol (oral), the ED50 came out at 0.15 mg/kg. The molecule also returned an IC50 in the test on Human LDL of 4000 nM.
